This assay addresses Glucagon-like peptide 1 receptor (Homo sapiens, UniProt P43220). Description: GLP-1R agonist cAMP stimulation Assay. From the text:
cAMP Detection Kit, Cisbio (Cat #62AM4PEJ).

Experimental findings from BindingDB's records for patent US20230271949 (Ascletis Bioscience, 2023) are described below.

Glucagon-like peptide 1 receptor, sequence (P43220 whole entry): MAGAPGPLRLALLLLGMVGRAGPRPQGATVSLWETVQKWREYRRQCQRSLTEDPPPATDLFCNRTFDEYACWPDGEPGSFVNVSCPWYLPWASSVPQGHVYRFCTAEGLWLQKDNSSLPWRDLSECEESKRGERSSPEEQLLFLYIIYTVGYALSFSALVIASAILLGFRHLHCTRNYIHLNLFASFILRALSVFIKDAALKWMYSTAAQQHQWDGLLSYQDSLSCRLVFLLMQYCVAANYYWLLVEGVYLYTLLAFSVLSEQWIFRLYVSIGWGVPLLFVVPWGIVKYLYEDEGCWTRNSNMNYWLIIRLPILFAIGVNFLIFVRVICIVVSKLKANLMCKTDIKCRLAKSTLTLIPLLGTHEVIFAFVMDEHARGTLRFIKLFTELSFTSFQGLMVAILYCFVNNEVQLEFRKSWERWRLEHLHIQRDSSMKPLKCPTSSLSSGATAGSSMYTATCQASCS

The molecule `Cc1coc2c(COc3cccc(C4=CCN(Cc5nc6cc(C(=O)Nc7cc(F)c8c(c7)C7(CC7)C(=O)N8)ccc6n5C[C@@H]5CCO5)CC4)n3)ccc(C#N)c12` [US20230271949, Example 351] had an EC50 of 0.19 nM.
